# Activity calls are given as the source filed them. No rule for the calls is given here.
# System: CCRIS mutagenicity, Ames/micronucleus/aberration tests
# Experiment: CCRIS mutagenicity studies
# [1] = Test System: AMES SALMONELLA TYPHIMURIUM, Strain/Indicator: TA98, Metabolic Activation: NONE, Method: STANDARD PLATE
# [2] = Test System: AMES SALMONELLA TYPHIMURIUM, Strain/Indicator: TA100, Metabolic Activation: NONE, Method: STANDARD PLATE
# [3] = Test System: AMES SALMONELLA TYPHIMURIUM, Strain/Indicator: TA1535, Metabolic Activation: NONE, Method: STANDARD PLATE
smiles,measurement,setting,value
O=C(O)[C@H](O)[C@@H](O)C(=O)O,mutagenic call,"End Point: IN VIVO MICRONUCLEUS, Test System: BONE MARROW POLYCHROMATIC ERYTHROCYTES, Species: MOUSE, Strain/Sex: DDY/MALE, Route: IP",inactive; negative; authors report chemical name as sodium d-tartrate with cas number of s
same,mutagenic call,"Test System: AMES SALMONELLA TYPHIMURIUM, Strain/Indicator: TA97, Metabolic Activation: NONE, Method: PREINCUBATION",inactive; negative
same,mutagenic call,"Test System: AMES SALMONELLA TYPHIMURIUM, Strain/Indicator: TA97, Metabolic Activation: RAT, LIVER, S-9, AROCLOR 1254, Method: PREINCUBATION",inactive; negative
same,mutagenic call,"Test System: AMES SALMONELLA TYPHIMURIUM, Strain/Indicator: TA98, Metabolic Activation: NONE, Method: PREINCUBATION",inactive; negative
same,mutagenic call,[1],inactive; negative
same,mutagenic call,"Test System: AMES SALMONELLA TYPHIMURIUM, Strain/Indicator: TA98, Metabolic Activation: RAT LIVER S-9, PHENOBARBITAL AND BETA-NAPHTHOFLAVONE, Method: PREINCUBATION",inactive; negative
same,mutagenic call,"Test System: AMES SALMONELLA TYPHIMURIUM, Strain/Indicator: TA98, Metabolic Activation: RAT, LIVER, S-9, AROCLOR 1254, Method: STANDARD PLATE",inactive; negative
same,mutagenic call,"Test System: AMES SALMONELLA TYPHIMURIUM, Strain/Indicator: TA100, Metabolic Activation: NONE, Method: PREINCUBATION",inactive; negative
same,mutagenic call,[2],inactive; negative
same,mutagenic call,"Test System: AMES SALMONELLA TYPHIMURIUM, Strain/Indicator: TA100, Metabolic Activation: RAT LIVER S-9, PHENOBARBITAL AND BETA-NAPHTHOFLAVONE, Method: PREINCUBATION",inactive; negative
same,mutagenic call,"Test System: AMES SALMONELLA TYPHIMURIUM, Strain/Indicator: TA100, Metabolic Activation: RAT, LIVER, S-9, AROCLOR 1254, Method: STANDARD PLATE",inactive; negative
same,mutagenic call,"Test System: AMES SALMONELLA TYPHIMURIUM, Strain/Indicator: TA102, Metabolic Activation: NONE, Method: PREINCUBATION",inactive; negative
same,mutagenic call,"Test System: AMES SALMONELLA TYPHIMURIUM, Strain/Indicator: TA102, Metabolic Activation: RAT, LIVER, S-9, AROCLOR 1254, Method: PREINCUBATION",inactive; negative
same,mutagenic call,"Test System: AMES SALMONELLA TYPHIMURIUM, Strain/Indicator: TA1535, Metabolic Activation: NONE, Method: PREINCUBATION",inactive; negative
same,mutagenic call,[3],inactive; negative
same,mutagenic call,"Test System: AMES SALMONELLA TYPHIMURIUM, Strain/Indicator: TA1535, Metabolic Activation: RAT LIVER S-9, PHENOBARBITAL AND BETA-NAPHTHOFLAVONE, Method: PREINCUBATION",inactive; negative
same,mutagenic call,"Test System: AMES SALMONELLA TYPHIMURIUM, Strain/Indicator: TA1535, Metabolic Activation: RAT, LIVER, S-9, AROCLOR 1254, Method: STANDARD PLATE",inactive; negative
same,mutagenic call,"Test System: AMES SALMONELLA TYPHIMURIUM, Strain/Indicator: TA1537, Metabolic Activation: NONE, Method: PREINCUBATION",inactive; negative
same,mutagenic call,"Test System: AMES SALMONELLA TYPHIMURIUM, Strain/Indicator: TA1537, Metabolic Activation: NONE, Method: STANDARD PLATE",inactive; negative
same,mutagenic call,"Test System: AMES SALMONELLA TYPHIMURIUM, Strain/Indicator: TA1537, Metabolic Activation: RAT LIVER S-9, PHENOBARBITAL AND BETA-NAPHTHOFLAVONE, Method: PREINCUBATION",inactive; negative
same,mutagenic call,"Test System: AMES SALMONELLA TYPHIMURIUM, Strain/Indicator: TA1537, Metabolic Activation: RAT, LIVER, S-9, AROCLOR 1254, Method: STANDARD PLATE",inactive; negative
same,mutagenic call,"Test System: AMES SALMONELLA TYPHIMURIUM, Strain/Indicator: TA1538, Metabolic Activation: NONE, Method: STANDARD PLATE",inactive; negative
same,mutagenic call,"Test System: AMES SALMONELLA TYPHIMURIUM, Strain/Indicator: TA1538, Metabolic Activation: RAT, LIVER, S-9, AROCLOR 1254, Method: STANDARD PLATE",inactive; negative
same,mutagenic call,"Test System: E. COLI, Strain/Indicator: WP2, Metabolic Activation: NONE, Method: STANDARD PLATE",inactive; negative
same,mutagenic call,"Test System: E. COLI, Strain/Indicator: WP2, Metabolic Activation: RAT, LIVER, S-9, AROCLOR 1254, Method: STANDARD PLATE",inactive; negative
same,mutagenic call,"Test System: E.COLI, Strain/Indicator: WP2UVRA/PKM101, Metabolic Activation: NONE, Method: PREINCUBATION",inactive; negative
same,mutagenic call,"Test System: E.COLI, Strain/Indicator: WP2UVRA/PKM101, Metabolic Activation: RAT LIVER S-9, PHENOBARBITAL AND BETA-NAPHTHOFLAVONE, Method: PREINCUBATION",inactive; negative
CCOC(=O)Nc1cccc2c1CN(C)CC2c1ccc(Cl)cc1 (stereo not given),mutagenic call,"Test System: AMES SALMONELLA TYPHIMURIUM, Strain/Indicator: TA98, Metabolic Activation: NONE",inactive; negative
same,mutagenic call,"Test System: AMES SALMONELLA TYPHIMURIUM, Strain/Indicator: TA98, Metabolic Activation: S-9",inactive; negative
same,mutagenic call,"Test System: AMES SALMONELLA TYPHIMURIUM, Strain/Indicator: TA100, Metabolic Activation: NONE",inactive; negative
same,mutagenic call,"Test System: AMES SALMONELLA TYPHIMURIUM, Strain/Indicator: TA100, Metabolic Activation: S-9",inactive; negative
same,mutagenic call,"Test System: AMES SALMONELLA TYPHIMURIUM, Strain/Indicator: TA1535, Metabolic Activation: NONE",inactive; negative
same,mutagenic call,"Test System: AMES SALMONELLA TYPHIMURIUM, Strain/Indicator: TA1535, Metabolic Activation: S-9",inactive; negative
same,mutagenic call,"Test System: AMES SALMONELLA TYPHIMURIUM, Strain/Indicator: TA1537, Metabolic Activation: NONE",inactive; negative
same,mutagenic call,"Test System: AMES SALMONELLA TYPHIMURIUM, Strain/Indicator: TA1537, Metabolic Activation: S-9",inactive; negative
same,mutagenic call,"Test System: AMES SALMONELLA TYPHIMURIUM, Strain/Indicator: TA1538, Metabolic Activation: NONE",inactive; negative
same,mutagenic call,"Test System: AMES SALMONELLA TYPHIMURIUM, Strain/Indicator: TA1538, Metabolic Activation: S-9",inactive; negative
CN(C)C(=O)Cl,mutagenic call,[2],active; positive
same,mutagenic call,[3],active; positive
same,mutagenic call,"Test System: E. COLI, Strain/Indicator: WP2 UVRA, Metabolic Activation: HAMSTER, LIVER, S-9, AROCLOR 1254, Method: PREINCUBATION",inactive; negative
same,mutagenic call,"Test System: E. COLI, Strain/Indicator: WP2 UVRA, Metabolic Activation: HAMSTER, LIVER, S-9, AROCLOR 1254, Method: STANDARD PLATE",inactive; negative
same,mutagenic call,"Test System: E. COLI, Strain/Indicator: WP2 UVRA, Metabolic Activation: HAMSTER, LIVER, S-9, Method: STANDARD PLATE",inactive; negative
same,mutagenic call,"Test System: E. COLI, Strain/Indicator: WP2 UVRA, Metabolic Activation: MOUSE, LIVER, S-9, AROCLOR 1254, Method: PREINCUBATION",inactive; negative
same,mutagenic call,"Test System: E. COLI, Strain/Indicator: WP2 UVRA, Metabolic Activation: MOUSE, LIVER, S-9, AROCLOR 1254, Method: STANDARD PLATE",inactive; negative
same,mutagenic call,"Test System: E. COLI, Strain/Indicator: WP2 UVRA, Metabolic Activation: MOUSE, LIVER, S-9, Method: PREINCUBATION",inactive; negative
same,mutagenic call,"Test System: E. COLI, Strain/Indicator: WP2 UVRA, Metabolic Activation: MOUSE, LIVER, S-9, Method: STANDARD PLATE",inactive; negative
same,mutagenic call,"Test System: E. COLI, Strain/Indicator: WP2 UVRA, Metabolic Activation: NONE, Method: STANDARD PLATE",inactive; negative
same,mutagenic call,"Test System: E. COLI, Strain/Indicator: WP2 UVRA, Metabolic Activation: RAT, LIVER, S-9, AROCLOR 1254, Method: STANDARD PLATE",inactive; negative
same,mutagenic call,"Test System: E. COLI, Strain/Indicator: WP2 UVRA, Metabolic Activation: RAT, LIVER, S-9, Method: STANDARD PLATE",inactive; negative
same,mutagenic call,"Test System: MOUSE LYMPHOMA, Strain/Indicator: L5178Y (TK+/TK-), Metabolic Activation: NONE, Method: SUSPENSION/PLATE",active; positive
same,mutagenic call,"Test System: MOUSE LYMPHOMA, Strain/Indicator: L5178Y (TK+/TK-), Metabolic Activation: RAT, LIVER, S-9, AROCLOR 1254, Method: SUSPENSION/PLATE",active; positive
Clc1cccc2c1oc1ccccc12,mutagenic call,[1],inactive; negative
same,mutagenic call,"Test System: AMES SALMONELLA TYPHIMURIUM, Strain/Indicator: TA98, Metabolic Activation: RAT, LIVER, S-9, PHENOBARBITAL AND NAPHTHOFLAVONE, Method: STANDARD PLATE",inactive; negative
same,mutagenic call,[2],inactive; negative
same,mutagenic call,"Test System: AMES SALMONELLA TYPHIMURIUM, Strain/Indicator: TA100, Metabolic Activation: RAT, LIVER, S-9, PHENOBARBITAL AND NAPHTHOFLAVONE, Method: STANDARD PLATE",inactive; negative

# From PubChem BioAssay AID1259407 (Chemical Carcinogenesis Research Information System (CCRIS), 2018)
